Measurements from the supplement of paper PMC10627819.

Tests used:
Experiment in all cases: fitness (endpoint OD595 vs no drug) (fraction); higher = more growth
[1] = test system: S. pneumoniae D39V
Summary of the method: (§1)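 Fitness compares growth at the stationary-phase transition with the robust mean of no-drug control wells, as a ratio of optical densities. The ratio is capped at 1. Wells of 384-well plates held 30 µl, or 55 µl for S. pneumoniae, inoculated at OD595 0.01. Readings at OD595 every 30 min for 14 h at 37 °C were corrected against the first reading.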

[2] = test system: B. subtilis 168
Summary of the method: as §1

[3] = test system: S. aureus DSM 20231
Summary of the method: as §1
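Note: OD595 on entry to stationary phase over no-drug wells; at most 1.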

CN(C)[C@@H]1C(O)=C(C(N)=O)C(=O)[C@@]2(O)C(O)=C3C(=O)c4c(O)ccc(Cl)c4[C@@](C)(O)[C@H]3C[C@@H]12 [Chlortetracycline] + Cc1onc(-c2ccccc2)c1C(=O)N[C@@H]1C(=O)N2[C@@H]1SC(C)(C)[C@@H]2C(=O)O [Oxacillin]
Conditions | fitness
[1], first compound 0.012 µg/mL, partner 0.01 µg/mL | 0.921
[1], first compound 0.012 µg/mL, partner 0.02 µg/mL | 0.878
[1], first compound 0.012 µg/mL, partner 0.04 µg/mL | 0.6
[1], first compound 0.024 µg/mL, partner 0.01 µg/mL | 0.876
[1], first compound 0.024 µg/mL, partner 0.02 µg/mL | 0.853
[1], first compound 0.024 µg/mL, partner 0.04 µg/mL | 0.681
[1], first compound 0.048 µg/mL, partner 0.01 µg/mL | 0.821
[1], first compound 0.048 µg/mL, partner 0.02 µg/mL | 0.739
[1], first compound 0.048 µg/mL, partner 0.04 µg/mL | 0.544
[1], first compound 0.375 µg/mL, partner 0.005 µg/mL | 0.0823
[1], first compound 0.375 µg/mL, partner 0.01 µg/mL | 0.0713
[1], first compound 0.375 µg/mL, partner 0.02 µg/mL | 0.0526
[1], first compound 0.75 µg/mL, partner 0.005 µg/mL | 0.104
[1], first compound 0.75 µg/mL, partner 0.01 µg/mL | 0.0551
[1], first compound 0.75 µg/mL, partner 0.02 µg/mL | 0.0755
[1], first compound 1.5 µg/mL, partner 0.005 µg/mL | 0.0919
[1], first compound 1.5 µg/mL, partner 0.01 µg/mL | 0.0809
[1], first compound 1.5 µg/mL, partner 0.02 µg/mL | 0.0469
[2], first compound 0.0475 µg/mL, partner 0.002 µg/mL | 0.868
[2], first compound 0.0475 µg/mL, partner 0.004 µg/mL | 0.829
[2], first compound 0.0475 µg/mL, partner 0.008 µg/mL | 0.832
[2], first compound 0.095 µg/mL, partner 0.002 µg/mL | 0.802
[2], first compound 0.095 µg/mL, partner 0.004 µg/mL | 0.764
[2], first compound 0.095 µg/mL, partner 0.008 µg/mL | 0.726
[2], first compound 0.19 µg/mL, partner 0.002 µg/mL | 0.488
[2], first compound 0.19 µg/mL, partner 0.004 µg/mL | 0.401
[2], first compound 0.19 µg/mL, partner 0.008 µg/mL | 0.416
[3], first compound 0.012 µg/mL, partner 0.0156 µg/mL | 0.452
[3], first compound 0.012 µg/mL, partner 0.0312 µg/mL | 0.379
[3], first compound 0.012 µg/mL, partner 0.0625 µg/mL | 0.341
[3], first compound 0.024 µg/mL, partner 0.0156 µg/mL | 0.204
[3], first compound 0.024 µg/mL, partner 0.0312 µg/mL | 0.173
[3], first compound 0.024 µg/mL, partner 0.0625 µg/mL | 0.165
[3], first compound 0.048 µg/mL, partner 0.0156 µg/mL | 0.0968
[3], first compound 0.048 µg/mL, partner 0.0312 µg/mL | 0.0599
[3], first compound 0.048 µg/mL, partner 0.0625 µg/mL | 0.0746

fitness, one replicate
Conditions | partner 0.0078 µg/mL | partner 0.0155 µg/mL | partner 0.0156 µg/mL | partner 0.031 µg/mL | partner 0.0312 µg/mL | partner 0.0625 µg/mL | partner 0.075 µg/mL | partner 0.15 µg/mL | partner 0.3 µg/mL
[2], first compound 0.0475 µg/mL | 0.924 | 0.934 | – | 0.931 | – | – | 0.66 | 0.0283 | 0.0599
[2], first compound 0.095 µg/mL | 0.926 | 0.814 | – | 0.674 | – | – | 0.581 | 0.0215 | 0.0316
[2], first compound 0.19 µg/mL | 0.62 | 0.621 | – | 0.575 | – | – | 0.377 | 0.0401 | 0.0338
[3], first compound 0.006 µg/mL | – | – | 0.7 | – | 0.531 | 0.435 | – | – | –

CN(C)[C@@H]1C(O)=C(C(N)=O)C(=O)[C@@]2(O)C(O)=C3C(=O)c4c(O)ccc(Cl)c4[C@@](C)(O)[C@H]3C[C@@H]12 [Chlortetracycline] + O=C(O[C@@H]1Cc2c(O)cc(O)cc2O[C@@H]1c1cc(O)c(O)c(O)c1)c1cc(O)c(O)c(O)c1 [EGCG]
fitness
Conditions | partner 6.25 µg/mL | partner 12.5 µg/mL | partner 25 µg/mL | partner 50 µg/mL
[1], first compound 0.012 µg/mL | – | 0.759 | 0.805 | 0.949
[1], first compound 0.024 µg/mL | – | 0.444 | 0.454 | 0.672
[1], first compound 0.048 µg/mL | – | 0.247 | 0.212 | –
[1], first compound 0.375 µg/mL | – | 0.07 | 0.0693 | 0.0612
[1], first compound 0.75 µg/mL | – | 0.0431 | 0.0527 | 0.0692
[1], first compound 1.5 µg/mL | – | 0.0475 | 0.0473 | 0.0718
[2], first compound 0.0475 µg/mL | 0.911 | – | 0.303 | –
[2], first compound 0.095 µg/mL | 0.754 | 0.463 | – | –
[2], first compound 0.19 µg/mL | 0.484 | 0.214 | 0.0594 | –
[3], first compound 0.012 µg/mL | – | 0.595 | 0.549 | –
[3], first compound 0.024 µg/mL | – | 0.455 | 0.398 | 0.332
[3], first compound 0.048 µg/mL | – | 0.138 | 0.108 | 0

[3], first compound 0.006 µg/mL, one replicate
Conditions | fitness
partner 12.5 µg/mL | 0.65
partner 25 µg/mL | 0.623
partner 50 µg/mL | 0.673
